The source of these data is article PMC5651866, “Halogenated Chrysins Inhibit Dengue and Zika Virus Infectivity” (Scientific Reports, 2017).

Data set [1] is described as follows: Cytotoxicity study (CellTiter 96 AQueous One) in Vero cells. Conditions: African green monkey, Vero cells, 48 h, read-out: Cells viability (%, means ± SEM) Vero. Type of data set: cell-based. As for the experimental part:
(§1) The cytotoxicity of active compounds was tested on LLC-MK2, Vero, THP-1, HEK-293, HepG2 and C6/36 cell lines. Each cell line was seeded at 1 × 10^4 cells per well in 96-well plates and incubated overnight. The compounds were added at the indicated concentrations and the cells were incubated for 48 h, unless indicated otherwise. Cell viability was analyzed using CellTiter 96® AQueous One Solution Cell Proliferation Assay kit (Promega, Wisconsin-Madison, USA) according to manufacturer’s protocol. The plate was read at the A 450 in a VICTORTM × 3 microplate reader (PerkinElmer, Massachusetts, USA). Percent cell viability in compound-treated wells was calculated using reference DMSO-treated cells as a 100% cell viability control. The CC50 values of LLC/MK2 cells were calculated using nonlinear regression analysis. Results were reported as means and standard error of the means (SEM) of CC50 values of three independent experiments in which each drug concentration was tested in triplicate.

The next data set has as its system Vero cells. The data set is described as above. Conditions: 10 and 25 µM; in words. Type of data set: cell-based. As to the method: as §1
Data set [2] deals with DENV2 infected C6/36 cells. In words: Fusion inhibition study in DENV2 infected C6/36 cells. In kind it is cell-based, Dengue virus. As to conditions: 10 and 25 µM; M.O.I. of 0.02; in words. As to the method:
We further explored whether the compound would block the viral infectivity by neutralization. We set up the attachment inhibition assay by incubating DENV2 with LLC/MK2 cells at 4 °C for 1 h and FV13 was added before adsorption (pre-attachment), simultaneous with adsorption (co-attachment), and after adsorption (post-attachment) (Fig. 5A). DMSO was used as a mock treatment and added in parallel to FV13 to the experiment. Cells were incubated until cytopathic effects appeared under microscope (Fig. 5B). Supernatants and cells were then analyzed by plaque titration (Fig. 5C) and RT-qPCR (Fig. 5D), respectively. […] Therefore, the major targets of FV13 inhibition appear to function after attachment, possibly at the fusion or translation steps. […] (Supplementary 1). Therefore, fusion was unlikely the major target of FV13. We concluded that one of the major targets of FV13 functions early after infection and attachment and fusion are not critically affected. Flavivirus translation initiates within 1 to 5 hpi[26].
The assay protocol was adapted from Ichiyama et al., 2013 and Poh et al., 20091,2. C6/36 cells were seeded at 2x10^5 cells per well in 24-well plate and incubated overnight. Cells were infected with DENV2 (M.O.I. of 0.02) at 28 °C for 1 h with gentle rocking every 15 min. […] The cells were closely monitored under microscope. […]

Data set [3] in a line: Viability of DENV2/BHK-21 replicon cells. Type of data set: cell-based. As to conditions: hamster, 5 and 10 µM, read-out: viable replicon cells. As for the experimental part: Next, we studied FV13 inhibition in a DENV2 replicon replication system to investigate whether translation and replication could be implicated as drug targets. BHK-21/DENV2 replicon cells[28] were treated with 5 and 10 µM FV13 and incubated for 72 h before measuring replication efficiency by quantifying replicon RNA. Ribavirin, a known dengue virus replication inhibitor[29], was used as a positive control.
Figure 6 Replicon inhibition study. (A) DENV2/BHK-21 replicon cells were treated with FV13 or ribavirin for 72 h. Percent inhibition was calculated from RT-qPCR of extracted RNA. Error bars represented standard error of means (SEM) from two independent experiments with triplicate samples. Asterisks indicated statistical significance in paired t-test as follows; *p-value < 0.05, **p-value < 0.01, ***p-value < 0.001 compared to 1% DMSO negative control. (B) Percent DENV2/BHK-21 replicon cell viability at 72 h under 5 and 10 µM FV13 treatment. Error bars represented standard error of means (SEM) from three independent experiments, in which each experiment was performed in triplicate.

As to `O=c1cc(-c2ccccc2)oc2c(Br)c(O)c(Br)c(O)c12` [FV13, 6,8-dibromo-5,7-dihydroxyflavone], the viability at 48 h, 10 µM in data set [1] (10 μM) turned out to be 53.1 ± 4.9%. In addition, in data set [1] (25 μM), the viability at 48 h, 25 µM turned out to be 42.6 ± 0.65%. Besides, the “sensitivity of Vero cells to the compound” value in the data set on Vero cells is “very sensitive”. Besides, the “fusion inhibition (number of fused cells or syncytial phenomenon)” value in data set [2] was “no difference in the number of fused cells or syncytial phenomenon”. For the same compound, the viability at 72 h in data set [3] was more than 99%.
